Laboratory results from PMC12681378, “Transcriptomic and enzymological evidence for plastid peptidoglycan synthesis in the gymnosperm Picea abies” (The Plant Journal, 2025).

Key:
Assay type in all cases: biochemical
His_AnMurE (46T) [1] = molecular target: T1, His_AnMurE (46T) (Nostoc sp. PCC 7120 = FACHB-418, UniProt Q8YWF0); experiment: Amplex Red phosphate-release coupled assay; conditions: 30 C, pH 7.6, 10 mM MgCl2, ATP, UDP-MurNAc-L-Ala-D-Glu
T1 construct: gene murE; N-terminal His tag (pPROEX); E. coli
T1 sequence (Q8YWF0 1-496): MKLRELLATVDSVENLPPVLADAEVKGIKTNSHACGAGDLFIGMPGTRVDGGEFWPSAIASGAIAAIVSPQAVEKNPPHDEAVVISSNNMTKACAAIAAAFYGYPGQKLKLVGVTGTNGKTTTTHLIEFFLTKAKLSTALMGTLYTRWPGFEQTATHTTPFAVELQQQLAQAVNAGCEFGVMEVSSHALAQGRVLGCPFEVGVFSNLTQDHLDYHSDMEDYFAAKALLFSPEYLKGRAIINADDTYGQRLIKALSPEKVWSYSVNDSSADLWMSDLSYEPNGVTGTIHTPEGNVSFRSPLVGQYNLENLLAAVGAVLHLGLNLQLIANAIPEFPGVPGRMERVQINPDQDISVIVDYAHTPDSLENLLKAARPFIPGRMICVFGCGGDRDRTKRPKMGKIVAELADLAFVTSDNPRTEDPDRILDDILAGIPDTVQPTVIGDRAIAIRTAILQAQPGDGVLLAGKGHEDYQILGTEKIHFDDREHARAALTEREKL

His_AnMurE (46T) [2] = molecular target: T1, His_AnMurE (46T); experiment: inhibition seen in Amplex Red coupled assay; conditions: product inhibition; 30 C, pH 7.6
[3] = molecular target: T2, Pseudomonas aeruginosa MurE (Pseudomonas aeruginosa, UniProt Q59650); experiment: Amplex Red phosphate-release coupled assay; NADH assay; conditions: 30 C, pH 7.6, 10 mM MgCl2, ATP
T2 construct: cloned into pET21; E. coli
T2 sequence (Q59650 1-487): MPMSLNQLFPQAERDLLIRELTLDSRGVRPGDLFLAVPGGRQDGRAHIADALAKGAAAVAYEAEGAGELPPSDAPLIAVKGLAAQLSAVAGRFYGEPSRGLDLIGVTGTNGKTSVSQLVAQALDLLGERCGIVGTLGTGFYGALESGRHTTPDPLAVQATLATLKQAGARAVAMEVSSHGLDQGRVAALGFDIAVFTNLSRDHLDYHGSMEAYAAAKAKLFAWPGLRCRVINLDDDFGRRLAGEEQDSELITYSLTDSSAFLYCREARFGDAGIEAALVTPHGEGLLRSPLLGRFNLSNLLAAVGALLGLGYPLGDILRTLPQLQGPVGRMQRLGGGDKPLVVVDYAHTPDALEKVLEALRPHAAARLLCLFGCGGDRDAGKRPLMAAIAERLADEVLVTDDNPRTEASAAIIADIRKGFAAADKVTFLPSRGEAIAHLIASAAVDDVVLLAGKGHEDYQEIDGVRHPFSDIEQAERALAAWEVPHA

PpMurE-TP_Avi_His (1.1T) = molecular target: T3, PpMurE-TP_Avi_His (1.1T) (Physcomitrium patens, UniProt Q3LHI5); experiment: as above; conditions: 30 C, pH 7.6, 10 mM MgCl2, ATP
T3 construct: gene MurE; from Leu63; transit peptide removed; E. coli

[4] = molecular target: T4, Streptococcus pneumoniae MurE (Streptococcus pneumoniae, UniProt Q8CWQ5); experiment: Amplex Red phosphate-release coupled assay; conditions: 30 C, pH 7.6, 10 mM MgCl2, ATP
T4 construct: cloned into pET21; E. coli
T4 sequence (Q8CWQ5 1-481): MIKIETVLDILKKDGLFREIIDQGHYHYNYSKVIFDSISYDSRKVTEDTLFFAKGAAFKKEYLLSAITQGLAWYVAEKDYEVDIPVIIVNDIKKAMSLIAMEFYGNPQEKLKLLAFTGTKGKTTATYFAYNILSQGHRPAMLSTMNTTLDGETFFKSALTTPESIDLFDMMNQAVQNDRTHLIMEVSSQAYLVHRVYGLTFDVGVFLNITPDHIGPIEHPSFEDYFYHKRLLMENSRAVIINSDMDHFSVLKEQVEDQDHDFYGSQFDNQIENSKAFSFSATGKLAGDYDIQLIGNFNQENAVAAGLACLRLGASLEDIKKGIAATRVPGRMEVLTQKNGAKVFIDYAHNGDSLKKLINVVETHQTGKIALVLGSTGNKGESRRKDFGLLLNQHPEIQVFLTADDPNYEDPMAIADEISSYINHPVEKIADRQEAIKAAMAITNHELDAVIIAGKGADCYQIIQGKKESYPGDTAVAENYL

T3 sequence (Q3LHI5 entry or part of it): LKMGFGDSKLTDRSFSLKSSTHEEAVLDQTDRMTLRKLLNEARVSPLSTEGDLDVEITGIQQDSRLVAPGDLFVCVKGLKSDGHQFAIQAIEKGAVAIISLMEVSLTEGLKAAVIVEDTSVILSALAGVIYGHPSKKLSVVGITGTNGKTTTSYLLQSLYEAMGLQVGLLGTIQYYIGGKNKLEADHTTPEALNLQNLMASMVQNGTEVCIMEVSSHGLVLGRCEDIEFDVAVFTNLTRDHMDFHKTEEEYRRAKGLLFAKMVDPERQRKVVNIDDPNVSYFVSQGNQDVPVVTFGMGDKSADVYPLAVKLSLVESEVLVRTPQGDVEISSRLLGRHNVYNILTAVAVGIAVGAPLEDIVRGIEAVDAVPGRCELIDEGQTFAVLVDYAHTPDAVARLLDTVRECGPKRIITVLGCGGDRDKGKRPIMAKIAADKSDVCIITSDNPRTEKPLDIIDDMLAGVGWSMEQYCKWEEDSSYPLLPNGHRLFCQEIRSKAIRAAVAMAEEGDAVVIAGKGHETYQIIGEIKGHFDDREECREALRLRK

SMILES: N[C@@H](CSC[C@H](N)C(=O)O)C(=O)O (racemic) [D, L-lanthionine]
- Amplex Red phosphate-release coupled assay (His_AnMurE (46T) [1]): D, L‐lanthionine was equally as efficiently incorporated as D, L‐DAP by Anabaena MurE

SMILES: Nc1ncnc2c1ncn2[C@@H]1O[C@H](COP(=O)(O)OP(=O)(O)O)[C@@H](O)[C@H]1O [ADP]
- inhibition seen in Amplex Red coupled assay (His_AnMurE (46T) [2]): an observed inhibitory effect of ADP on AnMurE in the Amplex Red assay

SMILES: N[C@H](CCC[C@H](N)C(=O)O)C(=O)O [D, L-diaminopimelate]
- Amplex Red phosphate-release coupled assay (His_AnMurE (46T) [1]): D, L‐lanthionine was equally as efficiently incorporated as D, L‐DAP by Anabaena MurE
- Amplex Red phosphate-release coupled assay; NADH assay ([3]; UDP-MurNAc-L-Ala-D-Glu): an order of magnitude less active than Pseudomonas aeruginosa MurE
- Amplex Red phosphate-release coupled assay; NADH assay (PpMurE-TP_Avi_His (1.1T); UDP-MurNAc-L-Ala-D-Glu): predominant substrate for both the moss, PpMurE, and cyanobacterial, AnMurE, ligases

SMILES: NCCCC[C@H](N)C(=O)O [L-lysine]
- Amplex Red phosphate-release coupled assay ([4]; UDP-MurNAc-L-Ala-D-Glu): able to utilize both L‐hydroxylysine and L‐lysine as substrates

SMILES: CC(=O)N[C@H]1[C@@H](OP(=O)(O)OP(=O)(O)OC[C@H]2O[C@@H](n3ccc(=O)[nH]c3=O)[C@H](O)[C@@H]2O)O[C@H](CO)[C@@H](O)[C@@H]1O[C@H](C)C(=O)N[C@@H](C)C(=O)N[C@H](CCC(=O)O)C(=O)O [UDP-N-acetylmuramoyl-L-alanyl-D-glutamate]
- Amplex Red phosphate-release coupled assay ([4]; L-lysine): L‐lysine as substrates with UDP‐N‐acetylmuramoyl‐L‐alanyl‐D‐glutamate as the acceptor
- Amplex Red phosphate-release coupled assay; NADH assay ([3]; D,L-DAP): D, L‐DAP) and UDP‐N‐acetylmuramoyl‐ L‐alanyl‐D‐glutamate as substrates
- Amplex Red phosphate-release coupled assay; NADH assay (PpMurE-TP_Avi_His (1.1T); D,L-DAP): UDP‐N‐acetylmuramoyl‐L‐alanyl‐D‐glutamate as the recipient molecule
